Source: ChEMBL document CHEMBL1146959, “Design and structure-activity relationship of heterocyclic analogs of 4-amino-3-benzimidazol-2-ylhydroquinolin-2-ones as inhibitors of receptor tyrosine kinases” (Bioorg Med Chem Lett, 2006)
pEC50, pIC50: −log10 of the molar value.

Columns and labels:
[1] = biological target: Vascular endothelial growth factor receptor 2 (Mus musculus, UniProt P35918); assay: Inhibitory activity against VEGFR2
[2] = biological target: Platelet-derived growth factor receptor beta (Mus musculus, UniProt P05622); assay: Inhibitory activity against PDGFRbeta
Chain of Platelet-derived growth factor receptor beta (P05622 whole entry): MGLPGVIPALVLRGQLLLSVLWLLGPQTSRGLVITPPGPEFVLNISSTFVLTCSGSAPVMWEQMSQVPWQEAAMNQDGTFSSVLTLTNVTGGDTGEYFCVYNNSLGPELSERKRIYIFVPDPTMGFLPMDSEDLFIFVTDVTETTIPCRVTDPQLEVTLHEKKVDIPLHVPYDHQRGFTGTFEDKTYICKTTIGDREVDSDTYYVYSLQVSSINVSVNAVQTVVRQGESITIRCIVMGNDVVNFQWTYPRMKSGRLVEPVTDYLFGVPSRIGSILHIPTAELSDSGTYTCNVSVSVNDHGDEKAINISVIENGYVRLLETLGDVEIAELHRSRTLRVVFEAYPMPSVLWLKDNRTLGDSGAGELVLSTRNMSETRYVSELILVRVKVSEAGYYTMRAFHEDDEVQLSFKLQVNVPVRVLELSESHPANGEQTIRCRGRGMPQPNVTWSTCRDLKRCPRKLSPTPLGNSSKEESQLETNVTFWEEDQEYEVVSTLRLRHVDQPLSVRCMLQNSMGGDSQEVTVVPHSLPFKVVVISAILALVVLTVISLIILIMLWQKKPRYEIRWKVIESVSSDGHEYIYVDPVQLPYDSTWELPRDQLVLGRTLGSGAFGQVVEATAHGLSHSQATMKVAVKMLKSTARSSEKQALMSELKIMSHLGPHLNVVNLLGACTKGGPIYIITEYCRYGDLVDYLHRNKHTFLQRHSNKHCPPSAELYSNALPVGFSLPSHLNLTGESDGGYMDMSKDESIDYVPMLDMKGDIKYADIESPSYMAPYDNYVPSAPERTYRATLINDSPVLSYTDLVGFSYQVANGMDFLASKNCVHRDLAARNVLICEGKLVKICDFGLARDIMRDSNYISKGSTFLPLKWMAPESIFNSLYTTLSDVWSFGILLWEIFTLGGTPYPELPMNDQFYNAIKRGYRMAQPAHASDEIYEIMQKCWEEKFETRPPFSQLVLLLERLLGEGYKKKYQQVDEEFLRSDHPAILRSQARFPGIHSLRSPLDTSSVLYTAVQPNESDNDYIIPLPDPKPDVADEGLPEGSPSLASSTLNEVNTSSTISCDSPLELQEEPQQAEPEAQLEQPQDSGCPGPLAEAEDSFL

[3] = biological target: Fibroblast growth factor receptor 1 (Homo sapiens, UniProt P11362); assay: Inhibitory activity against FGFR1
Chain of Fibroblast growth factor receptor 1 (P11362 whole entry): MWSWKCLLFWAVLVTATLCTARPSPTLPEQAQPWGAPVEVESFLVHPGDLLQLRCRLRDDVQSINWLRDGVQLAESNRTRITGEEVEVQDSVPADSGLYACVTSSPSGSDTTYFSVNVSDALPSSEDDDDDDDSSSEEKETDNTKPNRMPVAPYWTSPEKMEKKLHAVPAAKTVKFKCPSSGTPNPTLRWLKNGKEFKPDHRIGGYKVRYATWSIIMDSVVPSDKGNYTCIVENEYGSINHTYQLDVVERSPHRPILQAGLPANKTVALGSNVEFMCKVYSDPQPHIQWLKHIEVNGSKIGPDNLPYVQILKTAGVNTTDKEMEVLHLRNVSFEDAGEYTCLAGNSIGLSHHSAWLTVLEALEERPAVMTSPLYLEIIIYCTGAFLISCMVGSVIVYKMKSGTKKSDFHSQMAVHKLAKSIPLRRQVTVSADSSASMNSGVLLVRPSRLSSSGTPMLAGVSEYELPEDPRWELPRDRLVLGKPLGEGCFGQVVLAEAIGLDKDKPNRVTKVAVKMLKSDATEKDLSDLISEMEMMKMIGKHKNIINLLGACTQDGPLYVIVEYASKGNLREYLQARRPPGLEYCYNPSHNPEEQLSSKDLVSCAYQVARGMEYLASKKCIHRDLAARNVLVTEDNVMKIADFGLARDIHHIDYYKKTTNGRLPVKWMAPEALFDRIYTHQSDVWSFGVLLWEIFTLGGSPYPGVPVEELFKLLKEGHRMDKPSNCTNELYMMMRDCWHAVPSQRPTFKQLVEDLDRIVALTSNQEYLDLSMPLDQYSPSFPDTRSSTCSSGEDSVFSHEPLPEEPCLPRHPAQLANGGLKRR

HMEC = assay: Activity against HMVEC; format: functional, cell-based; settings: Homo sapiens
[4] = Oral bioavailability in mice; format: ADME, organism-based; settings: mouse, in vivo
[5] = Clearance in mice; format: ADME, organism-based; settings: mouse, in vivo
[6] = Half life in mice at 5 mg/kg, iv; format: ADME, organism-based; parameters: dose 5 mg/kg, route intravenous; settings: mouse, in vivo
[7] = Half life in mice at 20 mg/kg, po; format: ADME, organism-based; parameters: dose 20 mg/kg, route oral; settings: mouse, in vivo
[8] = biological target: Vascular endothelial growth factor receptor 1 (Homo sapiens, UniProt P17948)
Chain of Vascular endothelial growth factor receptor 1 (P17948 whole entry): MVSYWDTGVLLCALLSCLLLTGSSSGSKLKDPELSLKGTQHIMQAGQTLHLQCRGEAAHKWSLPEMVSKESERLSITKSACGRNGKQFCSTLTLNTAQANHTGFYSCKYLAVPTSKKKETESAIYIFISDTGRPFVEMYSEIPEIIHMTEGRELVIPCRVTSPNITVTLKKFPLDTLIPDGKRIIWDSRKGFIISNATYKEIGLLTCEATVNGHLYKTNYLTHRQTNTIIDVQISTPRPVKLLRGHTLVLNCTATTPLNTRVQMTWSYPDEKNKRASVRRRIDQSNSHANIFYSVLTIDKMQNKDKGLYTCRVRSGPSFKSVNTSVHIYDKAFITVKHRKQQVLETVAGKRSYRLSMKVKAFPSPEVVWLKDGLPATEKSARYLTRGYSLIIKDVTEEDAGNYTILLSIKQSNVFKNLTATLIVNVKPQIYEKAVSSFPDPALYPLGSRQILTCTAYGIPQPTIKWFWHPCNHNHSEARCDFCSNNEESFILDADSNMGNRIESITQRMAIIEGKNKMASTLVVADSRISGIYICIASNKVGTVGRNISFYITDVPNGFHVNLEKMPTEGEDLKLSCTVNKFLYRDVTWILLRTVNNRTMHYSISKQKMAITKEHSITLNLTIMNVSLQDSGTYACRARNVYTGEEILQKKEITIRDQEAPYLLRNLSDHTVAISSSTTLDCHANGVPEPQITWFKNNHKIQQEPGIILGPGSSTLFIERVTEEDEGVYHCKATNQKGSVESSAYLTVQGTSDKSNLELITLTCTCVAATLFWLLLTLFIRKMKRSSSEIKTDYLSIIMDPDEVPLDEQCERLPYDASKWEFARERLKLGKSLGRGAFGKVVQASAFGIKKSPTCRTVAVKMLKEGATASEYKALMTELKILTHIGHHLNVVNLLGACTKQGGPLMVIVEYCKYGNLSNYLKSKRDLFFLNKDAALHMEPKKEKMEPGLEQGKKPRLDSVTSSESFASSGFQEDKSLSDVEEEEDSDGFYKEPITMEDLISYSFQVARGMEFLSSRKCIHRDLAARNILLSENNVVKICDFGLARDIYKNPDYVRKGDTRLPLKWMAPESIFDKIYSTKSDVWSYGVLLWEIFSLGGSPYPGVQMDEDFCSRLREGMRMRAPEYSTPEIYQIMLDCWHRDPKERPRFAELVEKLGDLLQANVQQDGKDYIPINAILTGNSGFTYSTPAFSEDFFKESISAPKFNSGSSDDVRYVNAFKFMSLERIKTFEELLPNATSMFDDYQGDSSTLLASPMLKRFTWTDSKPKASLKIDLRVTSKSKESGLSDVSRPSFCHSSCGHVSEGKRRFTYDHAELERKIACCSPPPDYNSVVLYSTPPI
Description: Inhibitory activity against VEGFR1

Chain of Vascular endothelial growth factor receptor 2 (P35918 whole entry): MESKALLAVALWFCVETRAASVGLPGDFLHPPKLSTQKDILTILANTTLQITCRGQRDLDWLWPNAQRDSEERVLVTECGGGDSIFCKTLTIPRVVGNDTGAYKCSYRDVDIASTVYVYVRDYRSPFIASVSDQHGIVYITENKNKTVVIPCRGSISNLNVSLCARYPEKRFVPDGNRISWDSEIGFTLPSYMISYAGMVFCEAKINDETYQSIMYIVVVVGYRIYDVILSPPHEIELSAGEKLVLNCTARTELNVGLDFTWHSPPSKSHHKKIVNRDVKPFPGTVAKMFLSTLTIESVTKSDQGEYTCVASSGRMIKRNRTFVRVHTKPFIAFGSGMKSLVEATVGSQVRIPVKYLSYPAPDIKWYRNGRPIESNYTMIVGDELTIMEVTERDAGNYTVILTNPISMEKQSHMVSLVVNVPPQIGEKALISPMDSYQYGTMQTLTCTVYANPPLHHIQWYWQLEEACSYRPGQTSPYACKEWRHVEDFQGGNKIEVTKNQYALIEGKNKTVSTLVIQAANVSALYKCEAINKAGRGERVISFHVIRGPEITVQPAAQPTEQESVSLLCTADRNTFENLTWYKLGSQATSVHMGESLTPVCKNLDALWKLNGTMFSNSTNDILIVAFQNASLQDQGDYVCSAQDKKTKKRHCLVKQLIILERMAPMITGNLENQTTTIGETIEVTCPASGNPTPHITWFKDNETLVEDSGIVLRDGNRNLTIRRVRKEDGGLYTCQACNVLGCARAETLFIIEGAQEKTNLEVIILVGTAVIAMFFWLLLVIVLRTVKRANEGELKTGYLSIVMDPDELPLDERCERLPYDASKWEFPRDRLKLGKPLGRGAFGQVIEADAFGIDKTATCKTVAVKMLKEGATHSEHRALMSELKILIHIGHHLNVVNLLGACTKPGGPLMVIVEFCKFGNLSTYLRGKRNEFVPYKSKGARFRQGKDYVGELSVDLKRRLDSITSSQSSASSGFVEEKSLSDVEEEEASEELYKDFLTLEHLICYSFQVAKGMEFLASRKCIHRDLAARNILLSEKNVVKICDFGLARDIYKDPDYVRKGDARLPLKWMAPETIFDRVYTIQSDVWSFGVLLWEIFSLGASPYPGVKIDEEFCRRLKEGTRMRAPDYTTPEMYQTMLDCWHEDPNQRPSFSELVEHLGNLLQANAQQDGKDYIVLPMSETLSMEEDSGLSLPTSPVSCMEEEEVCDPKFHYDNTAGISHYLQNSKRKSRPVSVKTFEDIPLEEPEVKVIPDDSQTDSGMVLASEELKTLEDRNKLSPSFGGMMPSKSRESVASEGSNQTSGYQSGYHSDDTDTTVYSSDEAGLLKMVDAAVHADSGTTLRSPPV

| SMILES | pIC50 [1] | pIC50 [2] | pIC50 [3] | pEC50 (HMEC) | bioavailability [4] [%] | clearance [5] [mL/min/kg] | half-life [6] [h] | half-life [7] [h] | pIC50 [8] |
| --- | --- | --- | --- | --- | --- | --- | --- | --- | --- |
| Nc1c(-c2nc3cccnc3[nH]2)c(=O)[nH]c2ccccc12 | 7.80 | 7.60 | 7.29 | 7.06 |  |  |  |  |  |
| Nc1c(-c2nc3cccnc3[nH]2)c(=O)[nH]c2cnccc12 | 7.92 | 7.31 | 7.52 | 7.11 |  |  |  |  |  |
| Nc1c2cnnc-2[nH]c(O)c1-c1nc2ccccc2[nH]1 | 6.29 | 6.49 | 5.50 | 5.42 |  |  |  |  |  |
| CN1CCN(c2ccc3[nH]c(-c4c(O)nc5cccnc5c4N)nc3c2)CC1 | 7.48 | 7.26 | 7.37 | 7.05 |  |  |  |  |  |
| Nc1c(-c2nc3ccccc3[nH]2)c(O)nc2sccc12 | 6.96 | 6.16 | 6.46 | 6.07 |  |  |  |  |  |
| CN1CCN(c2ccc3[nH]c(-c4c(O)nc5cnccc5c4N)nc3c2)CC1 | 9.00 | 7.37 | 8.40 | 7.80 |  |  |  |  |  |
| Oc1nc2cnccc2c(O)c1-c1nc2ccccc2[nH]1 | 6.77 | 5.80 | 6.24 | 5.66 |  |  |  |  |  |
| Oc1nc2ncccc2c(O)c1-c1nc2ccccc2[nH]1 | 5.52 | 5.19 | 5.30 | < 5.00 |  |  |  |  |  |
| O=c1[nH]c2ccccc2c(O)c1-c1nc2ccccc2[nH]1 | 6.94 | 6.40 | 6.67 | 6.37 |  |  |  |  | 6.79 |
| Nc1c(-c2nc3cc(N4CCOCC4)ccc3[nH]2)c(O)nc2ccncc12 | 7.24 | 7.74 | 7.00 | 6.11 |  |  |  |  |  |
| Cn1ncc2c(N)c(-c3nc4ccccc4[nH]3)c(O)nc21 | 5.52 | 6.24 | 5.52 | 6.49 |  |  |  |  |  |
| Nc1c2ncnc-2[nH]c(O)c1-c1nc2ccccc2[nH]1 | 6.26 | 6.81 | 5.58 | 5.43 |  |  |  |  |  |
| Nc1c(-c2nc3ccccc3[nH]2)c(=O)[nH]c2ccccc12 | 7.60 | 6.99 | 7.36 |  |  |  |  |  | 7.55 |

Next, values leading:

| pIC50 [1] | pIC50 [2] | pIC50 [3] | pEC50 (HMEC) | bioavailability [4] [%] | clearance [5] [mL/min/kg] | half-life [6] [h] | half-life [7] [h] | pIC50 [8] | SMILES |
| --- | --- | --- | --- | --- | --- | --- | --- | --- | --- |
| 8.40 | 7.42 | 7.68 | 7.40 | 100 | 13 | 1.18 | 3.6 |  | Nc1c(-c2nc3cc(N4CCOCC4)ccc3[nH]2)c(=O)[nH]c2ccccc12 |
| 7.89 | 7.57 | 8.10 | 7.70 |  |  |  |  |  | CN1CCN(c2ccc3[nH]c(-c4c(N)c5ccccc5[nH]c4=O)nc3c2)CC1 |
| 7.62 | 7.52 | 8.00 | 7.29 |  |  |  |  |  | CN1CCN(c2ccc3nc(-c4c(N)c5ccccc5[nH]c4=O)[nH]c3n2)CC1 |
| 8.70 | 7.19 | 8.00 | 7.08 | 87 | 24 | 0.433 | 1.3 |  | Nc1c(-c2nc3cc(N4CCOCC4)ccc3[nH]2)c(O)nc2cnccc12 |
| 8.10 | 7.32 | 7.33 | 7.47 | 84 | 61 | 1.08 | 0.95 |  | Nc1c(-c2nc3ccc(N4CCOCC4)nc3[nH]2)c(=O)[nH]c2ccccc12 |
| 8.52 | 7.24 | 8.00 | 7.28 |  |  |  |  |  | Nc1c(-c2nc3ccccc3[nH]2)c(O)nc2cnccc12 |
